Reference: article PMC7287649, “Hypoxia-Activated Prodrug Derivatives of Carbonic Anhydrase Inhibitors in Benzenesulfonamide Series: Synthesis and Biological Evaluation” (Molecules, 2020)
Where “and” joins values, the source holds several entries; their conditions need not be identical. Identical values can stand only once. Entries after “also recorded” stand apart in the source; their conditions may differ. Like-named read-outs stand apart in the source and are kept apart here.

Experiments:
HCT116 cells [1] = test: alamarBlue cell viability assay, HCT116; format: cell-based, human; conditions: for IC50: 2 h exposure, 72 h regrowth
Procedure: (§1) Human colorectal HCT116 and HT29 carcinoma cells were cultured in Dulbecco’s Modified Eagle Medium (DMEM, Lonza) supplemented with 10% fetal bovine serum and 1% PenStrep. Cells were exposed to anoxic conditions for 24 h in a hypoxic chamber (MACS VA500 microaerophilic workstation, Don Whitley Scientific, Bingley, UK) with an atmosphere consisting of ≤0.02% O2, 5% CO2 and residual N2. Normoxic cells were grown in regular incubators with 21% O2, 5% CO2 at 37 °C.
(§2) The cytotoxic efficacy of the bio-reducible derivatives was determined based on cell viability assays using alamarBlue® (Invitrogen). In short, HT29 and HCT116 were seeded in 96-well plates and allowed to attach overnight. On the following day, the plates were exposed to normoxia or anoxia and medium was replaced with pre-incubated normoxic or anoxic DMEM. Compounds were dissolved in DMSO (0.5%, Sigma-Aldrich) and final concentrations were made with pre-incubated anoxic or normoxic DMEM and added to the wells after 24 h of exposure. Cells were exposed to compounds for a total of 2 h, after which the medium was washed off and replaced with fresh medium. Cells were allowed to grow for an additional 72 h under normoxic conditions prior to measurement. Cells were incubated with alamarBlue® for 2 h during normoxic conditions, which corresponds with their metabolic function, a measure for cell viability. Fluorescence was measured using plate reader (FLUOstar Omega, BMG LABTECH, Ortenberg, Germany) using a fluorescence excitation wavelength of 540–580 nm.
(§3) GraphPad Prism (version 5.03, GraphPad Software, San Diego, CA, USA) was used for all statistical analyses. For the cytotoxic compounds, IC50 values were estimated with the curve of the log (inhibitor) vs. normalized response (Variable slope).

hCA I = hCA I (Homo sapiens, UniProt P00915); test: stopped flow CO2 hydrase assay, hCA I
Procedure: (§8) An Sx.18Mv-R Applied Photophysics (Oxford, UK) stopped-flow instrument was used for assaying the CA catalyzed CO2 hydration activity. […] In particular, CO2 was bubbled in distilled deionized water for 30 min so that the water was saturated (the concentration at a specific temperature is known from literature). In addition, a CO2 assay kit (from Merck, Darmstadt, Germany) was used to measure the concentration in variously diluted solutions obtained from the saturated one (which was kept at the same temperature and a constant bubbling during the experiments). […] The uncatalyzed rates were determined in the same manner and subtracted from the total observed rates. Stock solutions of inhibitor (0.1 mM) were prepared in distilled deionized water and dilutions up to 0.01 nM were done thereafter with distilled deionized water. Inhibitor and enzyme solutions were pre-incubated together for 15 min–2 h (or longer, i.e., 4–6 h) at room temperature (at 4 °C for the incubation periods longer than 15 min) prior to assay, in order to allow for the formation of the EI complex. The inhibition constants were obtained by non-linear least-squares methods using PRISM 3 and the Cheng–Prusoff equation, as reported earlier [38, 39], and represent the mean from at least three different determinations. hCA I was purchased by Merck (Darmstadt, Germany) and used without further purification, whereas all the other hCA isoforms were recombinant ones obtained in-house as reported earlier [40].

zebrafish larvae [2] = test: swim pattern analysis of zebrafish larvae; format: in vivo; conditions: 160 µM (concentration that did not induce phenotypic defects), end of 5 days of exposure
Procedure: The swim pattern of the zebrafish larvae was studied after 5 days of exposure to these compounds. For the analyses of swim pattern, about 15–20 zebrafish larvae after 5 days of exposure to the compounds were placed in a 35 mm × 15 mm petri dish containing embryonic medium, and the larvae were allowed to settle in the petri dish for 1 min. The movement of the zebrafish larvae was observed under the microscope for 1 min. […] The swim patterns were compared with the control group zebrafish larvae that were not treated with any inhibitor.

HCT116 cells [3] = test: clonogenic assay, HCT116; format: cell-based, human; conditions: HCT116, normoxia or anoxia, tested concentrations (10 to 100 μM), 30 min exposure
Procedure: as §1
(§4) Clonogenic survival HT29 and HCT116 cells were seeded with a high density for CA IX-dependent extracellular acidification. […] These cells were exposed to 23:30 h normoxic or anoxic conditions and 30 min to drugs after which cells were trypsinized and reseeded in triplicate with known cell numbers. Cells were allowed to grow for 9 (HCT116) and 14 (HT29) days to form colonies that were quantified after staining and fixation with 0.4% methylene blue in 70% ethanol. Surviving fractions were calculated and compared to control survival curves produced in the same experiment without compound treatment.

HT29 cells [4] = test: clonogenic assay, HT29; format: cell-based, human; conditions: HT29, normoxia or anoxia, tested concentrations (10 to 100 μM), 30 min exposure
Procedure: as §1, §4

hCA II = hCA II (Homo sapiens, UniProt P00918); test: stopped flow CO2 hydrase assay, hCA II
Procedure: as §8

HT29 cells [5] = test: alamarBlue cell viability assay, HT29; format: cell-based, human; conditions: for IC50: Homo sapiens, HT-29
Procedure: as §1, §2, §3

[6] = zebrafish embryo lethality (LC50); format: in vivo; conditions: AB, zebrafish, in vivo, zebrafish embryos from 24 hpf, end of 5 days of exposure
Procedure: (§5) The hypoxia-activated prodrugs were screened for their toxicity using 24-h post-fertilization zebrafish embryos as described earlier. The compounds were either dissolved in Embryonic medium (5.0 mM NaCl, 0.17 mM KCl, 0.33 mM CaCl2, 0.33 mM MgSO4, and 0.1% w/v Methylene Blue (Sigma-Aldrich, Darmstadt, Germany) or in dimethyl sulfoxide (DMSO) (Sigma-Aldrich, St. Louis, MO, USA) to prepare 100 mM stock solutions. Before the start of each experiment, the series of dilutions were made from the above stock in the embryonic medium.
(§6) The wild-type adult zebrafish (AB strains) were maintained at 28.5 °C in an incubator [35]. In each breeding tank, about embryos 3–5 pairs of male and female fish were set up overnight for collecting the embryos. The following morning, 1–2-h post-fertilization (hpf) embryos were collected in a sieve and rinsed with embryonic medium and kept the collected embryos in an incubator at 28.5 °C overnight. The toxicity evaluation studies of the compounds were performed using the fish that were 24-hpf. All the zebrafish experiments were performed at the zebrafish core facility, Tampere University, Finland, and according to the protocol used in our laboratory.
(§7) The LC50 values for all the three prodrugs were determined using 24-hpf embryos using […] different concentrations for each compound. We used a minimum of 30 zebrafish larvae for each concentration of the compound [28, 30, 36, 42]. The 24-hpf larvae were exposed to different concentrations of the inhibitors that ranged from 20 μM to […]. A dose response curve (DRC) was calculated using the DRM (model fitting function) of the DRC R package. The control group constituted an equal number of larvae not treated with any compound and the larvae that were treated with 1% DMSO. Toxicological evaluation studies were performed in 24-well plates (Corning V R Costar V R cell culture plates). In each well, we placed 1–2 24-hpf embryos in 1 mL of embryonic medium containing a diluted inhibitor. For control groups, 1% DMSO diluted in either embryonic medium or embryonic medium with no chemical compound. A minimum of three sets of experiments were carried out for each prodrug. The mortality of the larvae was checked every 24 h until 5 days after exposure to the prodrugs.

zebrafish embryos = test: zebrafish embryo lethality (LC50); format: in vivo
Procedure: as §5, §6, §7

zebrafish larvae [7] = test: phenotypic analysis of zebrafish larvae; format: in vivo; conditions: for adverse effects on observable phenotypic parameters of the larvae: 20 μM–2 mM, 5 days post exposure; for swim bladder development: at 5 days; for phenotypic defects: at lower concentrations compared to 1b
Procedure: as §5, §6
After exposure to the prodrugs, we evaluated the effects of these compound on the zebrafish larvae by analyzing the following eight phenotypic parameters: (1) mortality, (2) hatching (3) edema (4) swimming pattern, (5) yolk sack utilization, (6) heartbeat, (7) body shape, and (8) swim bladder development. The images of the developing larvae were taken using a Lumar V1.12 fluorescence microscope (Carl Zeiss MicroImaging GmbH, Göttingen, Germany) attached to a camera with a 1.5 lens (Carl Zeiss MicroImaging GmbH, Göttingen, Germany). The images were analyzed with AxioVision software versions 4.7 and 4.8 as described in our standard protocol for the assessment of the toxicity and safety of chemical compounds.

hCA IX = hCA IX (Homo sapiens, UniProt Q16790); test: stopped flow CO2 hydrase assay, hCA IX; conditions: for Selectivity Ratio KI hCA II/KI hCA IX: hCA II over hCA IX
Procedure: as §8

zebrafish larvae [8] = conditions: 100 μM; cited from earlier work
[9] = Homo sapiens, HCT-116, HCT116, anoxia, read-out: IC50A
[10] = Homo sapiens, HCT-116, HCT116, normoxia, read-out: IC50N
[11] = KI hCA I, mean from 3 different assays
[12] = HT29, anoxia, 2 h exposure, 72 h regrowth, read-out: IC50A
[13] = HT29, normoxia, 2 h exposure, 72 h regrowth, read-out: IC50N

hCA I, sequence (P00915 whole entry): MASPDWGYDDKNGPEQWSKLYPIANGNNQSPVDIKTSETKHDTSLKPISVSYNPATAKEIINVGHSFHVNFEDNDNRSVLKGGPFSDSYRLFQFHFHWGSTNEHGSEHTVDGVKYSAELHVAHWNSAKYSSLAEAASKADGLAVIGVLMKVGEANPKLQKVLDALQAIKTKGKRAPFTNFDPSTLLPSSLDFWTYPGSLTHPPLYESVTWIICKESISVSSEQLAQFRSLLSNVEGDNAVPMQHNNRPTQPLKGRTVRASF

Row | Molecule | IC50 (HCT116 cells [1]; [9]) [µM] | IC50 (HCT116 cells [1]; [10]) [µM] | Ki (hCA I; [11]) | Ki (hCA II) [µM] | IC50 (HT29 cells [5]; [12]) [µM] | IC50 (HT29 cells [5]; [13]) [µM] | adverse effects on observable phenotypic parameters of the larvae (zebrafish larvae [7]) | Ki (hCA IX) [µM] | Selectivity Ratio KI hCA II/KI hCA IX (hCA IX) | also measured
1 | Cn1c(COC(=O)NCCc2ccc(S(N)(=O)=O)cc2)cnc1[N+](=O)[O-] [Compound 1b, (1-methyl-2-nitro-1H-imidazol-5-yl) methyl (4-sulfamoylphenethyl) carbamate] | 59.3 | 149 | 0.167 µM | 0.0306 | 204 | > 500 | minimal or no adverse effects | 0.0076 |  | IC50 (HCT116 cells [1]; HCT116, anoxia, read-out: IC50A): 59.4 µM; swim pattern (zebrafish larvae [2]): did not induce phonotypic abnormalities in the larvae as well as abnormal or ataxic swim movement; clonogenic cell survival (HCT116 cells [3]): did not reduce clonogenic cell survival; clonogenic cell survival (HT29 cells [4]): did not reduce clonogenic cell survival; HCR (IC50N/IC50A) (HT29 cells [5]; HT29, hypoxia selectivity cytotoxicity ratio): >2.44; IC50N (HT29 cells [5]; HT29, normoxia, 2 h exposure, 72 h regrowth): no detectable cytotoxicity; LC50 [6]: ~1400 µM; mortality of the larvae (zebrafish embryos; 1 mM, end of 5 days of exposure): did not cause any mortality; also recorded: no mortality observed; swim bladder development (zebrafish larvae [7]; 1000 μM): absence of a swim bladder; phenotypic abnormalities (zebrafish larvae [7]; zebrafish larvae, 1 mM): no or minimal phenotypic abnormalities
2 | Cc1ncc([N+](=O)[O-])n1CCOC(=O)NCCc1ccc(S(N)(=O)=O)cc1 [Compound 2b, 2-(2-methyl-5-nitro-1H-imidazol-1-yl) ethyl (4-sulfamoylphenethyl) carbamate] | > 500 | > 500 | 0.0037 µM | 0.0043 | > 500 | > 500 |  | 0.0121 | 0.35 | 
3 | Cc1ncc([N+](=O)[O-])n1CCOC(=O)NCc1ccc(S(N)(=O)=O)cc1 [Compound 2c, 2-(2-methyl-5-nitro-1H-imidazol-1-yl) ethyl (4-sulfamoylbenzyl) carbamate] | > 500 | > 500 | 0.0023 µM | 0.004 | > 500 | > 500 |  | 0.0141 | 0.28 | 
4 | NS(=O)(=O)c1ccc(CCNC(=O)OCCNC(=O)c2cc([N+](=O)[O-])ccc2N(CCCl)CCCl)cc1 [Compound 3b, 2-(2-(bis(2-chloroethyl)amino)-5-nitrobenzamido) ethyl (4-sulfamoylphenethyl) carbamate] | 97.3 | 267 | 0.083 µM | 0.0031 | > 500 | > 500 |  | 0.0323 | 0.09 | HCR (IC50N/IC50A) (HCT116 cells [1]; HCT116, hypoxia selectivity cytotoxicity ratio): 2.7 and 2.74; cytotoxicity (HT29 cells [5]; HT29, normoxia and anoxia, tested concentrations): no cytotoxicity
5 | NS(=O)(=O)c1ccc(CNC(=O)OCCNC(=O)c2cc([N+](=O)[O-])ccc2N(CCCl)CCCl)cc1 [Compound 3c, 2-(2-(bis(2-chloroethyl)amino)-5-nitrobenzamido) ethyl (4-sulfamoylbenzyl)carbamate] | > 500 | > 500 | 2.18 µM | 0.0837 | > 500 | > 500 |  | 0.0887 | 0.94 | 
6 | NS(=O)(=O)c1ccc(CCNC(=O)OCc2ccc([N+](=O)[O-])o2)cc1 [Compound 4b, (5-nitrofuran-2-yl)methyl (4-sulfamoylphenethyl) carbamate] |  |  | 0.084 µM and 0.0838 µM | 0.0155 |  |  | adverse effect on hatching, swim bladder development, the utilization of the yolk sac, and the shape of the body and induced pericardial edema | 0.0057 | 2.72 | LC50 [6]: ~500 µM; mortality of the larvae (zebrafish embryos; 500 μM): significant mortality; swim bladder development (zebrafish larvae [7]; 250 μM): absence of a swim bladder; phenotypic defects (zebrafish larvae [7]; zebrafish larvae): phenotypic defects, such as edema and the absence of a swim bladder
7 | Cc1ncc([N+](=O)[O-])n1CCNS(N)(=O)=O [DTP348] |  |  |  |  |  |  |  |  |  | neurotoxic effect (zebrafish larvae [8]): induced a neurotoxic effect; swim pattern (zebrafish larvae [8]): ataxic movement pattern
8 | (5-nitrothiophen-2-yl)methyl(4-sulfamoylphenethyl)carbamate [Compound 5b] |  |  |  |  |  |  | adverse effect on hatching, swim bladder development, the utilization of the yolk sac, and the shape of the body and induced pericardial edema |  | 1.31 | Ki (hCA I; read-out: KI hCA I, mean from 3 different assays): 0.0647 µM; Ki (hCA II; read-out: KI hCA II, stopped flow CO2 hydrase assay, mean from 3 different assays): 0.0198 µM; edema (zebrafish larvae [7]; as early as 2 days post exposure): induced edema; phenotypic defects (zebrafish larvae [7]; zebrafish larvae): phenotypic defects, such as edema and the absence of a swim bladder; Ki (hCA IX; read-out: KI hCA IX, stopped flow CO2 hydrase assay, mean from 3 different assays): 0.0151 µM
